In general, IC50 refers to the point on the concentration scale where inhibition reaches its midpoint.

From US8188101B2 (AstraZeneca AB, priority 2008, dated 2012) come the findings set out here.

The test system of this test is Aβ42 release. Kind of test: Aβ release in cells stably expressing APPswe, Meso Scale Discovery electrochemiluminescence assay. The test is classed as cell-based, Human. The settings on record: Homo sapiens, SH-SY5Y, HEK or SH-SY5Y cells stably expressing APPswe, 4-6 hours incubation with test compound. The method, then: The level of activity of the compounds on Aβ release was tested using the following method:
Compounds were diluted in 100% DMSO and stored at […] prior to use. Human Embryonic Kidney (HEK) or Human Neuroblastoma (SH-SY5Y) cell lines stably expressing APP with the Swedish mutation (APPswe) were cultured using Dulbecco's Modified Eagles medium (DMEM) supplied with […] glucose, Na-pyruvate and GlutaMAX with 10% FBS, 100 U/ml penicillin-streptomycin (PEST) respectively, 1× non-essential amino acids (NEAA), […] Hepes, 100 μg/ml Zeocine. Cells at about 80% confluence were washed with PBS, detached from culture flasks using 1× Trypsin/EDTA diluted in PBS, re-suspended in cell media and plated in 384-well poly-d-lysine coated cell culture plates at about 10000-15000 cells/well, in 25 μL cell media. Optionally, cryo-preserved cells (frozen and stored at −140° C. in 90% cell media and 10% DMSO) were thawed, washed and plated as above. Next the cells were incubated for 15-24 h at 37° C. and 5% CO2, after which cell medium was changed. Fresh medium containing test compound diluted ×200 from prepared compound plate was added to the cells before further incubation for 4-6 hours at 37° C. and 5% CO2. After incubation with test compound the amount of Aβ peptides, including Aβ42, Aβ40, Aβ39, Aβ38 and Aβ37, secreted to the cell medium was analyzed using the electrochemiluminescence assay technology from Meso Scale Discovery Technology, in combination with specific antibodies raised against the different Aβ peptides. Potential cytotoxic effects of the compounds were usually assayed by measuring the ATP content (ViaLight) from cell lysate.
Regarding `COc1cc(Nc2nc3c(c(Nc4ccccc4)n2)CNCC3)ccc1-n1cnc(C)c1` [Example 7, N2-(3-Methoxy-4-(4-methyl-1H-imidazol-1-yl)phenyl)-N4-phenyl-5,6,7,8-tetrahydropyrido[4,3-d]pyrimidine-2,4-diamine], the IC50 was 100 nM.

As for `CCN(CC1CCCO1)c1nc(Nc2ccc(-c3cnco3)cc2)nc2c1CN(C)CC2` (centres unmarked) [Example 82, N4-Ethyl-6-methyl-N2-(4-(oxazol-5-yl)phenyl)-N4-((tetrahydrofuran-2-yl)methyl)-5,6,7,8-tetrahydropyrido[4,3-d]pyrimidine-2,4-diamine], the IC50 is 316 nM.

In the case of `OCCN(c1ccccc1)c1nc(Nc2ccc(-c3cnco3)cc2)nc2c1CNCC2` [Example 1, 2-((2-(4-(Oxazol-5-yl)phenylamino)-5,6,7,8-tetrahydropyrido[4,3-d]pyrimidin-4-yl)(phenyl)amino)ethanol], the IC50 was 1000 nM.

As for `Cc1nccn1-c1ccc(Nc2nc3c(c(Cc4ccccc4)n2)CN(CCO)CC3)cc1` [Example 41, 2-(4-Benzyl-2-(4-(2-methyl-1H-imidazol-1-yl)phenylamino)-7,8-dihydropyrido[4,3-d]pyrimidin-6(5H)-yl)ethanol], the IC50 is 200 nM.

Regarding `CC(=O)N1CCc2nc(Nc3ccc(-c4cnco4)cc3)nc(Nc3cccc(CO)c3)c2C1` [Example 29, 1-(4-(3-(Hydroxymethyl)phenylamino)-2-(4-(oxazol-5-yl)phenylamino)-7,8-dihydropyrido[4,3-d]pyrimidin-6(5H)-yl)ethanone], the IC50 was 631 nM.

With `COc1cc(Nc2nc3c(c(C(C)n4nc(C)cc4C)n2)CN(C(C)=O)CC3)ccc1-n1cnc(C)c1` (centres unmarked) [Example 108, 1-(4-(1-(3,5-Dimethyl-1H-pyrazol-1-yl)ethyl)-2-(3-methoxy-4-(4-methyl-1H-imidazol-1-yl)phenylamino)-7,8-dihydropyrido[4,3-d]pyrimidin-6(5H)-yl)ethanone], the IC50 is 501 nM.

With `Cc1nccn1-c1ccc(Nc2nc3c(c(Cc4ccccc4)n2)CN(C)CC3)cc1` [Example 42, 4-Benzyl-6-methyl-N-(4-(2-methyl-1H-imidazol-1-yl)phenyl)-5,6,7,8-tetrahydropyrido[4,3-d]pyrimidin-2-amine], the half-inhibitory concentration (IC50) is 398 nM.

With `Cc1nccn1-c1ccc(Nc2nc3c(c(N(CCC#N)C4CC4)n2)CN(C)CC3)cc1` [Example 78, 3-(Cyclopropyl(6-methyl-2-(4-(2-methyl-1H-imidazol-1-yl)phenylamino)-5,6,7,8-tetrahydropyrido[4,3-d]pyrimidin-4-yl)amino)propanenitrile], the IC50 is 1000 nM.

Regarding `c1ccc(Nc2nc(Nc3ccc(-c4cnco4)cc3)nc3c2CNCC3)cc1` [Example 3, N2-(4-(Oxazol-5-yl)phenyl)-N4-phenyl-5,6,7,8-tetrahydropyrido[4,3-d]pyrimidine-2,4-diamine], the IC50 is 1000 nM.

Consider `Cc1nccn1-c1ccc(Nc2nc3c(c(NCC4CCOCC4)n2)CN(C)CC3)cc1` [Example 79, 6-Methyl-N2-(4-(2-methyl-1H-imidazol-1-yl)phenyl)-N4-((tetrahydro-2H-pyran-4-yl)methyl)-5,6,7,8-tetrahydropyrido[4,3-d]pyrimidine-2,4-diamine], for which the IC50 was 1260 nM.

Regarding `Cc1nccn1-c1ccc(Nc2nc3c(c(CC4CCCC4)n2)CN(C)CC3)cc1` [Example 55, 4-(Cyclopentylmethyl)-6-methyl-N-(4-(2-methyl-1H-imidazol-1-yl)phenyl)-5,6,7,8-tetrahydropyrido[4,3-d]pyrimidin-2-amine], the IC50 was 316 nM.

Regarding `Cc1ccc(Cc2nc(Nc3ccc(-n4ccnc4C)cc3)nc3c2CN(CCO)CC3)cc1` [Example 48, 2-(2-(4-(2-Methyl-1H-imidazol-1-yl)phenylamino)-4-(4-methylbenzyl)-7,8-dihydropyrido[4,3-d]pyrimidin-6(5H)-yl)ethanol], the concentration for half-maximal inhibition (IC50) is 200 nM.

As for `CC(=O)N1CCc2nc(Nc3ccc(-c4cnco4)cc3)nc(N3CCCC(CO)C3)c2C1` (centres unmarked) [Example 93, 1-(4-(3-(Hydroxymethyl)piperidin-1-yl)-2-(4-(oxazol-5-yl)phenylamino)-7,8-dihydropyrido[4,3-d]pyrimidin-6(5H)-yl)ethanone], the IC50 is 6310 nM.

`CCN(CC1CCCO1)c1nc(Nc2ccc(-n3ccnc3C)cc2)nc2c1CN(CCO)CC2` (centres unmarked) [Example 77, 2-(4-(Ethyl((tetrahydrofuran-2-yl)methyl)amino)-2-(4-(2-methyl-1H-imidazol-1-yl)phenylamino)-7,8-dihydropyrido[4,3-d]pyrimidin-6(5H)-yl)ethanol]: the half-maximal inhibitory concentration (IC50) is 631 nM.

Consider `COc1cc(Nc2nc(CCC3CCCO3)c3c(n2)CCN(C(C)=O)C3)ccc1-n1cnc(C)c1` (centres unmarked) [Example 111, 1-(2-(3-Methoxy-4-(4-methyl-1H-imidazol-1-yl)phenylamino)-4-(2-(tetrahydrofuran-2-yl)ethyl)-7,8-dihydropyrido[4,3-d]pyrimidin-6(5H)-yl)ethanone], for which the IC50 was 251 nM.

Regarding `COc1cccc(Cc2nc(Nc3ccc(-n4cnc(C)c4)c(OC)c3)nc3c2COCC3)c1` [Example 100, N-(3-Methoxy-4-(4-methyl-1H-imidazol-1-yl)phenyl)-4-(3-methoxybenzyl)-7,8-dihydro-5H-pyrano[4,3-d]pyrimidin-2-amine], the IC50 is 100 nM.

`CN(C)CC(=O)N1CCc2nc(Nc3ccc(-c4cnco4)cc3)nc(N(CCO)c3ccccc3)c2C1` [Example 17, 2-(Dimethylamino)-1-(4-((2-hydroxyethyl)(phenyl)amino)-2-(4-(oxazol-5-yl)phenylamino)-7,8-dihydropyrido[4,3-d]pyrimidin-6(5H)-yl)ethanone]: the IC50 was 1580 nM.

With `COc1cc(Nc2nc3c(c(Nc4ccccc4)n2)CN(CCO)CC3)ccc1-n1cnc(C)c1` [Example 8, 2-(2-(3-Methoxy-4-(4-methyl-1H-imidazol-1-yl)phenylamino)-4-(phenylamino)-7,8-dihydropyrido[4,3-d]pyrimidin-6(5H)-yl)ethanol], the IC50 was 79.4 nM.

With `CC(=O)N1CCc2nc(Nc3ccc(-c4cnco4)cc3)nc(N(CCO)Cc3ccccc3)c2C1` [Example 32, 1-(4-(Benzyl(2-hydroxyethyl)amino)-2-(4-(oxazol-5-yl)phenylamino)-7,8-dihydropyrido[4,3-d]pyrimidin-6(5H)-yl)ethanone], the IC50 is 794 nM.

For `Cc1nccn1-c1ccc(Nc2nc3c(c(Cc4ccccc4F)n2)CN(C)CC3)cc1` [Example 52, 4-(2-Fluorobenzyl)-6-methyl-N-(4-(2-methyl-1H-imidazol-1-yl)phenyl)-5,6,7,8-tetrahydropyrido[4,3-d]pyrimidin-2-amine], the IC50 was 316 nM.

With `CS(=O)(=O)N1CCc2nc(Nc3ccc(-c4cnco4)cc3)nc(N(CCO)c3ccccc3)c2C1` [Example 21, 2-((6-(Methylsulfonyl)-2-(4-(oxazol-5-yl)phenylamino)-5,6,7,8-tetrahydropyrido[4,3-d]pyrimidin-4-yl)(phenyl)amino)ethanol], the IC50 is 1260 nM.

For the compound `CC(=O)N1CCc2nc(Nc3ccc(-c4cnco4)cc3)nc(N(C)C3CCCCC3)c2C1` [Example 88, 1-(4-(Cyclohexyl(methyl)amino)-2-(4-(oxazol-5-yl)phenylamino)-7,8-dihydropyrido[4,3-d]pyrimidin-6(5H)-yl)ethanone], the IC50 is 398 nM.

For the compound `c1ccc(CNc2nc(Nc3ccc(-c4cnco4)cc3)nc3c2CCNC3)cc1` [Example 5, N4-Benzyl-N2-(4-(oxazol-5-yl)phenyl)-5,6,7,8-tetrahydropyrido[3,4-d]pyrimidine-2,4-diamine], the IC50 is 1000 nM.
